The values that follow come from patent US20070197389A1 (priority 2004, published 2007).

Assay [1] deals with Pyricularia oryzae. Format: cell-based. The note with it: 125 ppm active compound, microtiter plate, absorption at 405 nm on day 7 after inoculation, relative to active compound-free control.
Assay [2] deals with Phytophthora infestans. In kind it is in vivo. The note with it: 250 ppm active compound, potted tomato plants, sprayed 1 day before infection, assessed after 6 days; untreated plants 70% infected.

Turning to `CC(=O)Nc1c(-c2c(F)cc(F)cc2F)c(Cl)nc2ncnn12` [Example 4, N-[5-Chloro-6-(2,4,6-trifluorophenyl)(1,2,4-triazolo[1,5-a]pyrimidin-7-yl)]acetamide], the relative growth entry in assay [1] was “less than or equal to 1%”.

`CCC(=O)Nc1c(-c2c(F)cc(F)cc2F)c(Cl)nc2ncnn12` [Example 5, N-[5-chloro-6-(2,4,6-trifluorophenyl)(1,2,4-triazolo-[1,5-a]pyrimidin-7-yl)]propionamide]: in assay [2], the infection result is on record as “less than or equal to 15%”.
